Source: PubChem BioAssay AID1963968 (Molecular Pharmacology Branch, DTP, NCI, 2024)
pIC50: −log10 of the molar value.

Tested on: 945468-187-T-J3-PDC spheroids with HUVEC/MSC, viability
Test: Anticancer human tumor 945468-187-T-J3-PDC patient-derived rectal carcinoma cell line growth inhibition [PI3K]
Settings: for pIC50: curve of first compound; for viability, T/C: stronger effect = lower value
In short: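 Spheroid viability read-out. Co-cultures contained the tumor line plus HUVEC and human MSCs. Each agent was paired with a PI3K inhibitor (inavolisib, alpelisib, duvelisib, copanlisib) across half-log dilutions starting at clinical Cmax, or at 10 microM when Cmax was unknown.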

[1] = second compound 0.00316 µM, first compound 0.0316 µM
[2] = second compound 0.00316 µM, first compound 0.1 µM
[3] = second compound 0.00316 µM, first compound 0.316 µM
[4] = second compound 0.00316 µM, first compound 1 µM
[5] = second compound 0.00316 µM, first compound 3.16 µM
[6] = second compound 0.00316 µM, first compound 10 µM
[7] = second compound 0.01 µM, first compound 0.0316 µM
[8] = second compound 0.01 µM, first compound 0.1 µM
[9] = second compound 0.01 µM, first compound 0.316 µM
[10] = second compound 0.01 µM, first compound 1 µM
[11] = second compound 0.01 µM, first compound 3.16 µM
[12] = second compound 0.01 µM, first compound 10 µM
[13] = second compound 0.0316 µM, first compound 0.0316 µM
[14] = second compound 0.0316 µM, first compound 0.1 µM
[15] = second compound 0.0316 µM, first compound 0.316 µM
[16] = second compound 0.0316 µM, first compound 1 µM
[17] = second compound 0.0316 µM, first compound 3.16 µM
[18] = second compound 0.0316 µM, first compound 10 µM
[19] = second compound 0.1 µM, first compound 0.0316 µM
[20] = second compound 0.1 µM, first compound 0.1 µM
[21] = second compound 0.1 µM, first compound 0.316 µM
[22] = second compound 0.1 µM, first compound 1 µM
[23] = second compound 0.1 µM, first compound 3.16 µM
[24] = second compound 0.1 µM, first compound 10 µM
[25] = second compound 0.316 µM, first compound 0.0316 µM
[26] = second compound 0.316 µM, first compound 0.1 µM
[27] = second compound 0.316 µM, first compound 0.316 µM
[28] = second compound 0.316 µM, first compound 1 µM
[29] = second compound 0.316 µM, first compound 3.16 µM
[30] = second compound 0.316 µM, first compound 10 µM
[31] = second compound 1 µM, first compound 0.0316 µM
[32] = second compound 1 µM, first compound 0.1 µM
[33] = second compound 1 µM, first compound 0.316 µM
[34] = second compound 1 µM, first compound 1 µM
[35] = second compound 1 µM, first compound 3.16 µM
[36] = second compound 1 µM, first compound 10 µM
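Also: spheroids exposed to agents for 7 days before viability read.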
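For viability, T/C in this document: 100% = DMSO vehicle control viability.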

C[C@@H](NC(=O)c1ncnc(N)c1Cl)c1ncc(C(=O)Nc2cc(C(F)(F)F)c(Cl)cn2)s1 + COc1c(OCCCN2CCOCC2)ccc2c3n(c(=NC(=O)c4cnc(N)nc4)nc12)CCN3
pIC50 (second compound 0.00316 µM): < 5.00
pIC50 (second compound 0.01 µM): < 5.00
pIC50 (second compound 0.0316 µM): < 5.00
pIC50 (second compound 0.1 µM): > 7.50
pIC50 (second compound 0.316 µM): > 7.50
pIC50 (second compound 1 µM): > 7.50
viability, T/C [1]: 89.2%
viability, T/C [2]: 101%
viability, T/C [3]: 97.1%
viability, T/C [4]: 104%
viability, T/C [5]: 98.4%
viability, T/C [6]: 95.9%
viability, T/C [7]: 118%
viability, T/C [8]: 91.7%
viability, T/C [9]: 101%
viability, T/C [10]: 99.3%
viability, T/C [11]: 94.6%
viability, T/C [12]: 90.3%
viability, T/C [13]: 94.5%
viability, T/C [14]: 101%
viability, T/C [15]: 83.8%
viability, T/C [16]: 95%
viability, T/C [17]: 92%
viability, T/C [18]: 102%
viability, T/C [19]: 34.8%
viability, T/C [20]: 42.1%
viability, T/C [21]: 39%
viability, T/C [22]: 45.5%
viability, T/C [23]: 45.6%
viability, T/C [24]: 51.8%
viability, T/C [25]: 19.7%
viability, T/C [26]: 22.8%
viability, T/C [27]: 19.8%
viability, T/C [28]: 18.2%
viability, T/C [29]: 20.8%
viability, T/C [30]: 21.4%
viability, T/C [31]: 17.3%
viability, T/C [32]: 17.7%
viability, T/C [33]: 17.4%
viability, T/C [34]: 16.1%
viability, T/C [35]: 19%
viability, T/C [36]: 19.9%

CCCS(=O)(=O)Nc1ccc(F)c(C(=O)c2c[nH]c3ncc(-c4ccc(Cl)cc4)cc23)c1F + COc1c(OCCCN2CCOCC2)ccc2c3n(c(=NC(=O)c4cnc(N)nc4)nc12)CCN3
pIC50 (second compound 0.00316 µM): < 5.00
pIC50 (second compound 0.01 µM): < 5.00
pIC50 (second compound 0.0316 µM): 5.14
pIC50 (second compound 0.1 µM): > 7.50
pIC50 (second compound 0.316 µM): > 7.50
pIC50 (second compound 1 µM): > 7.50
viability, T/C [1]: 106%
viability, T/C [2]: 81%
viability, T/C [3]: 88.9%
viability, T/C [4]: 77.7%
viability, T/C [5]: 87.2%
viability, T/C [6]: 52.3%
viability, T/C [7]: 86.6%
viability, T/C [8]: 77.3%
viability, T/C [9]: 86.2%
viability, T/C [10]: 87.7%
viability, T/C [11]: 95.8%
viability, T/C [12]: 74.2%
viability, T/C [13]: 83.8%
viability, T/C [14]: 89.4%
viability, T/C [15]: 79.1%
viability, T/C [16]: 89.6%
viability, T/C [17]: 86.1%
viability, T/C [18]: 36.7%
viability, T/C [19]: 42.2%
viability, T/C [20]: 48.9%
viability, T/C [21]: 38.2%
viability, T/C [22]: 43.6%
viability, T/C [23]: 28.7%
viability, T/C [24]: 8.36%
viability, T/C [25]: 18.8%
viability, T/C [26]: 20.2%
viability, T/C [27]: 20.1%
viability, T/C [28]: 22.2%
viability, T/C [29]: 20.9%
viability, T/C [30]: 7.04%
viability, T/C [31]: 15.5%
viability, T/C [32]: 16.1%
viability, T/C [33]: 18.2%
viability, T/C [34]: 18.5%
viability, T/C [35]: 15.2%
viability, T/C [36]: 6.57%

C#Cc1c(F)ccc2cc(O)cc(-c3ncc4c(N5CC6CCC(C5)N6)nc(OCC56CCCN5CC(F)C6)nc4c3F)c12 (stereo unspecified) + CC(Nc1ccc2c(c1)OCCn1cc(N3C(=O)OCC3C(F)F)nc1-2)C(N)=O
pIC50 (second compound 0.00316 µM): < 5.00
pIC50 (second compound 0.01 µM): < 5.00
pIC50 (second compound 0.0316 µM): < 5.00
pIC50 (second compound 0.1 µM): < 5.00
pIC50 (second compound 0.316 µM): < 5.00
pIC50 (second compound 1 µM): 5.56
viability, T/C [1]: 94%
viability, T/C [2]: 103%
viability, T/C [3]: 94%
viability, T/C [4]: 114%
viability, T/C [5]: 120%
viability, T/C [6]: 113%
viability, T/C [7]: 94.1%
viability, T/C [8]: 100%
viability, T/C [9]: 94.6%
viability, T/C [10]: 115%
viability, T/C [11]: 138%
viability, T/C [12]: 102%
viability, T/C [13]: 100%
viability, T/C [14]: 104%
viability, T/C [15]: 99.8%
viability, T/C [16]: 118%
viability, T/C [17]: 115%
viability, T/C [18]: 105%
viability, T/C [19]: 122%
viability, T/C [20]: 112%
viability, T/C [21]: 97%
viability, T/C [22]: 117%
viability, T/C [23]: 115%
viability, T/C [24]: 103%
viability, T/C [25]: 111%
viability, T/C [26]: 99.6%
viability, T/C [27]: 91.3%
viability, T/C [28]: 106%
viability, T/C [29]: 91%
viability, T/C [30]: 56.1%
viability, T/C [31]: 76.2%
viability, T/C [32]: 73.2%
viability, T/C [33]: 64.9%
viability, T/C [34]: 70.2%
viability, T/C [35]: 47.3%
viability, T/C [36]: 29%
